Assay results reported in patent publication US5239082A, “Sulfonamide tetrazole ACAT inhibitors” (Warner-Lambert Company, priority 1992, dated 1993).

How the values were obtained:
[1] = target: T1, acyl-CoA: cholesterol acyltransferase (ACAT) (Oryctolagus cuniculus, UniProt G1SFD9); test: in vitro ACAT inhibition test (IAI), radiolabeled cholesterol oleate formed from radiolabeled oleic acid in rabbit intestinal microsomes; type: biochemical; details: inhibition of acylation of cholesterol by oleic acid
T1 construct: tissue preparation containing rabbit intestinal microsomes; from tissue; host or cells: rabbit intestinal microsomes
T1 sequence (G1SFD9 1-524): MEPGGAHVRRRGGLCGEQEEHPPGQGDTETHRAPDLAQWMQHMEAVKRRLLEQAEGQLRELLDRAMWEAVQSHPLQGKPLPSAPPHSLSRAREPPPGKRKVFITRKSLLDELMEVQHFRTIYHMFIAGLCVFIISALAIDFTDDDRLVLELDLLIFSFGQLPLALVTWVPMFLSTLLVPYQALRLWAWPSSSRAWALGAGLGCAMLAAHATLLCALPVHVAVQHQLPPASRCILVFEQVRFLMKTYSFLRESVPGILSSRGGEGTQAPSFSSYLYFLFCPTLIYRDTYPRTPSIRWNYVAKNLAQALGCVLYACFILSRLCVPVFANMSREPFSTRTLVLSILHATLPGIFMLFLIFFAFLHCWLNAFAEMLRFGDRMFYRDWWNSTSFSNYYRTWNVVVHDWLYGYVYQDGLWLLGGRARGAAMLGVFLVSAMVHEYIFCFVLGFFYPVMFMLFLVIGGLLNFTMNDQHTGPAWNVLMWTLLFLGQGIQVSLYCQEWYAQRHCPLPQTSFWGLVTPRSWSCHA
Description: The ability of representative compounds of the present invention to inhibit ACAT was measured using an in vitro test more fully described in Field FJ, Salone RG. Biochemica et Biophysica 1982;712:557-70. The test assesses the ability of a test compound to inhibit the acylation of cholesterol by oleic acid by measuring the amount of radiolabeled cholesterol oleate formed from radiolabeled oleic acid in a tissue preparation containing rabbit intestinal microsomes.
The data appear in Table 1 where they are expressed as IC50 values; i.e., the concentration of test compound required to inhibit the activity of the enzyme by 50%.

[2] = in vivo screen designated APCC, rats on high fat, high cholesterol diet with 0.5% cholic acid, blood cholesterol; parameters: species or system male Sprague-Dawley rats; details: Rattus norvegicus, 16 h, dosed at 4 PM in CMC/Tween, sacrificed at 8 AM, high cholesterol diet overnight, read-out: APCC (% ΔTC)
Description: In one in vivo screen designated APCC, male Sprague-Dawley rats (200 to 225 g) were randomly divided into treatment groups and dosed at 4 PM with either vehicle (CMC/Tween) or suspensions of compounds in vehicle. The normal chow diet was then replaced with a high fat, high cholesterol diet with 0.5% cholic acid. The rats consumed this diet ad libitum during the night and were sacrificed at 8 AM to obtain blood samples for cholesterol analysis using standard procedures. Statistical differences between mean cholesterol values for the same vehicle were determined using analysis of variance followed by Fisher's least significant test. The results of this trial for representative compounds of the present invention also appear in Table 1.

Compound: CCCCCCCCCCCCn1nnc(CS(=O)(=O)Nc2c(C(C)C)cccc2C(C)C)n1 [Example 1, N-[2,6-Bis(1-methylethyl)phenyl]-2-dodecyl-2H-tetrazole-5-methanesulfonamide]
- IC50 [1]: 0.222 µM
- change in vivo at 30 mg/kg [2]: -61%

Compound: CCCCCCCCCCCCCCCCn1nnc(CS(=O)(=O)Nc2c(C(C)C)cccc2C(C)C)n1 [Example 2, N-[2,6-bis(1-methylethyl)phenyl]-2-hexadecyl-2H-tetrazole-5-methanesulfonamide]
- IC50 [1]: 0.6 µM
- change in vivo at 30 mg/kg [2]: -20%

Compound: CCCCCCCCCCCCCCn1nnc(CS(=O)(=O)Nc2c(C(C)C)cccc2C(C)C)n1 [Example 3, N-[2,6-bis(1-methylethyl)phenyl]-2-tetradecyl-2H-tetrazole-5-methanesulfonamide]
- IC50 [1]: 0.15 µM
- change in vivo at 30 mg/kg [2]: -42%

Compound: CCCCCCCCn1nnc(CS(=O)(=O)Nc2c(C(C)C)cccc2C(C)C)n1 [Example 4, N-[2,6-bis(1-methylethyl)phenyl]-2-octyl-2H-tetrazole-5-methanesulfonamide]
- IC50 [1]: 0.75 µM
- change in vivo at 30 mg/kg [2]: -14%

Compound: CCCCCCCCCCCCCCCCCCn1nnc(CS(=O)(=O)Nc2c(C(C)C)cccc2C(C)C)n1 [Example 5, N-[2,6-bis(1-methylethyl)phenyl]-2-octadecyl-2H-tetrazole-5-methanesulfonamide]
- IC50 [1]: 7.6 µM
- change in vivo at 30 mg/kg [2]: -31%

Compound: CCCCCCCCCCCCn1nnnc1CS(=O)(=O)Nc1c(C(C)C)cccc1C(C)C [Example 6, N-[2,6-bis(1-methylethyl)phenyl]-1-dodecyl-1H-tetrazole-5-methanesulfonamide]
- IC50 [1]: 1.2 µM
- change in vivo at 30 mg/kg [2]: -41%

Compound: CCCCCCCCCCCCn1nnc(CS(=O)(=O)Nc2c(OC)cc(OC)cc2OC)n1 [Example 7, N-(2,4,6-trimethoxyphenyl)-2-dodecyl-2H-tetrazole-5-methanesulfonamide]
- IC50 [1]: 0.18 µM
- change in vivo at 30 mg/kg [2]: -60%

Compound: CCCCCCCCCCCCn1nnnc1CS(=O)(=O)Nc1c(OC)cc(OC)cc1OC [Example 8, N-(2,4,6-trimethoxyphenyl)-1-dodecyl-1H-tetrazole-5-methanesulfonamide]
- IC50 [1]: 3.7 µM
- change in vivo at 30 mg/kg [2]: -30%

Compound: CCCCCCCCCCCCn1nnc(C(C)(C)S(=O)(=O)Nc2c(C(C)C)cccc2C(C)C)n1 [Example 9, N-[2,6-Bis(1-methylethyl)phenyl]-2-dodecyl-α,α-dimethyl-2H-tetrazole-5-methanesulfonamide]
- IC50 [1]: 0.04 µM
- change in vivo at 30 mg/kg [2]: -53%
